# Laboratory results published in patent US20130115178A1, “TANNING ENHANCERS AND SELF-TANNING SUBSTANCES” (MERCK PATENT GESELLSCHAFT MIT BESCHRANKTER HAFTUNG, priority 2010, published 2013).
# Where “and” joins values, the source holds several entries; their conditions need not be identical. Equal entries are not always repeated.
# Assays:
# [1] = In-vitro investigation of DHA and DHA/glucuronolactone (Liquidskin model, L-a-b values); settings: 37° C., pH 7
# [2] = system: B16V mouse melanoma cells; assay: B16 V mouse melanoma cell test (melanin concentration); assay type: cell-based; settings: for Melanin concentration %: relative to blank DMSO + α-MSH = 100%
# Description: Description of the performance of the B16 V mouse melanoma cell test:
# B16V mouse melanoma cells (manufacturer: DSMZ; Article No,: ACC370) in RPMI medium (Invitrogen, Article No.: 31870), to which 10% of FBS (foetal bovine serum, Invitrogen, Article No: 10499044), 2 mM L-glutamine (Invitrogen, Article No: 25030) and 1 mM sodium pyruvate (Invitrogen, Article No:11360) had additionally been added (modified RPMI medium), are transferred into a culture bottle and incubated at 37° C. and 5% CO2 for 72 h. The medium is separated off, and the cells are washed with 10 ml of D-PBS (Invitrogen, Article No. 14190) and subsequently filtered off with suction. 1 ml of HyQtase cell detachment solution (Hyclone, Article No. SV30030.01) is added to the cells. The bottle is swirled a number of times, and the HyQtase cell detachment solution is subsequently removed by suction. The cells are then incubated in the incubator at 37° C. and 5% CO2 for 5 min. The cells are taken up in the modified RPMI medium (Invitrogen, Article No.: 31870), and the cell count is determined. To this end, the cells are stained with Tryptan Blue and counted in a Neubauer chamber. The cells are subsequently sown out again in the modified RPMI medium in a defined cell count of 80,000 cells per well (6-well clear plate, TCT, PS (Nunc)).
# The plate is subsequently incubated at 37° C. and 5% CO2 for 24 h, the medium is then removed. […]
# After the final incubation period, the medium is removed by suction, and the cells are washed with 1000 μl of D-PBS (Invitrogen, Article No. 14190). […] The cell count is subsequently determined. To this end, the cells are stained with Tryptan Blue and counted in a Neubauer chamber. […] 200 μl are then pipetted as quadruple determination (per cup) into a 96-well plate (VWR, Article No. 4100636981), and the absorption at a wavelength of 405 nm is determined. […] The content of melanin can be determined in this way by means of a calibration line.
# The other values were determined relative to the blank sample with dimethyl sulfoxide (DMSO) and a-MSH, whose measurement was set at 100%
# [3] = system: explants from the stomach tissue of a pale-skinned person (type); assay: Ex-vivo study: chromametric colour measurement of skin explants; parameters: species or system human; key: change in the L*a*b* a value from D0; settings: D5 vs D0; single explants; listed as P2
# [4] = system: explants from the stomach tissue of a pale-skinned person (type); assay: as above; parameters: species or system human; key to b / a: CIE L*a*b* colour coordinates, Minolta CR-300 chromameter, D65
# Description: 12 explants from the stomach tissue of a pale-skinned person (type) having an average diameter of 10 mm are prepared (reference: P831-AB49).
# The explants are kept in a BEM medium (B10-EC's explants medium) at 37° C. in a moist atmosphere comprising 5% of CO2.
# The following samples are tested: (in each case 3 explants), where the solutions of the corresponding substances used comprise 90% of water and 10% of ethanol.
# Glucuronolactone is employed in the bicyclic form.
# 2 μl of the respective sample are added to the explants and distributed for the first time (D0), 1 day later (D1), 2 days later (D2), 3 days later (D3) and 4 days later (D4). The colour of the explants is determined chromametrically. The measurements are carried out on addition (D0), on day 1 (D1), on day 5 (D5) and on day 11 (D11).
# The colour measurements are carried out using a Minolta CR-300 Chroma-meter, and the L, a and b values are read off correspondingly on the instrument.
# The following parameters are set:
# A colour area is present here which is viewed at a viewing angle of 2 degrees. This viewing angle is used as standard in the chromametric measurement. • Irradiation source D65, corresponding to daylight • Region of the measurement: 3 mm • Parameters used: L*a*b*
# The sample is placed on the bearing rail with the epidermis facing downwards. The irradiation is carried out from the underside through the area indicated (3 mm).
# In the colorimetric determinations <<L a b>>, the L value determines the contrast of the skin. If the L value drops, the skin appears darker.
# Δa after one day is calculated as follows: […]
# [5] = D0 (on addition), single explants, n=3, listed as P2
# [6] = D1, single explants, n=3, listed as P2
# [7] = D5, single explants, n=3, listed as P2
# [8] = D11, single explants, n=3, listed as P2
compound,measurement,setting,value
"O=C(CO)CO [DHA, 1,3-dihydroxyacetone]",L,[1]; after 6 hours,86.1
same,a,[1]; after 6 hours,13.4
same,b,[1]; after 6 hours,39.9
same,L,[1]; after 24 hours,61.3
same,a,[1]; after 24 hours,31.7
same,b,[1]; after 24 hours,75.0
same,L,[1]; after one hour,99.4
same,a,[1]; after one hour,0.4
same,b,[1]; after one hour,1.3
O=C[C@H](O)[C@H]1OC(=O)[C@@H](O)[C@H]1O [Glucuronolactone],Melanin concentration %,[2]; 10 mM + α-MSH (10^−8 M),46.9%
same,Melanin concentration %,"[2]; 10 mM, without α-MSH",56.7%
same,melanin production,[2]; cell culture tests with B16V mouse melanoma cells,reduce melanin production
same,Δa,[3],0.25 and 0.22 and 0.26
same,L,[4]; [5],64.07 and 62.49 and 62.34
same,b,[4]; [5],17.1 and 17.34 and 16.15
same,L,[4]; [6],65.12 and 64.59 and 62.71
same,b,[4]; [6],17.81 and 17.14 and 16.29
same,L,[4]; [7],62.73 and 63.62 and 63.56
same,b,[4]; [7],16.51 and 16.88 and 15.95
same,L,[4]; [8],64.22 and 65.7 and 62.69
same,a,[4]; [8],1.87 and 2.44 and 2.65
same,b,[4]; [8],14.34 and 15.04 and 15.57
same,skin colour in comparison with the untreated sample,"[4]; explants, glucuronolactone 1%",darkening of the skin
